What was measured:
[1] = test system: normal human melanocytes (NHM); test: Melanin production by NHM without UV induction (spectrophotometry); assay type: cell-based; settings: for increase in pigmentation of NHM vs. control: 16 ppm; for melanin production by NHM, Variation (%) vs control / Melanin: n = 4; for Melanin Variation (%) vs control / Melanin: 10 days contact; for Melanin: without UV induction
Procedure: (§1) NHM are cultivated and placed in contact with the product according to the invention for 10 days. At the end of this contact period, the mats are ground and the melanin is extracted from the cells. The quantity of melanin is assessed by spectrophotometry, using a standard range established previously from a melanin solution and compared to the control. A protein assay using the bicinchoninic acid (BCA) method is performed to estimate the quantity of cells and to standardise the obtained data.
The tests were carried out on NHM, the protocol being the same to the one above of point a)
The protocol is the same as that of point a) above.

NHM [2] = test: Pigmentation of NHM, microscopic observation by expert; assay type: cell-based, human; settings: 10 days
Procedure: NHM are cultivated and placed in contact with the product according to the invention for 10 days. At the end of this contact period, cells are observed with a microscope and variation of pigmentation of cells versus control is evaluated by an expert.

HaCaT keratinoctes [3] = test: Hyaluronic acid production by keratinocytes (ELISA); assay type: cell-based; settings: 3 days; for Hyaluronic acid: n = 4
Procedure: (§2) HaCaT keratinoctes are seeded and cultured and, once at sub-confluence, receive the tyrosine derivative according to the invention, or its solvent, at different concentrations for 3 days. At the end of this period, the media are collected for hyaluronic acid and laminin assays using ELISA methods. The cell concentration is estimated using the Hoescht method.

B16 mouse pigment cells [4] = test: Melanin production by B16 mouse pigment cells; assay type: cell-based; settings: 2 days contact; for Melanin: n = 4
Procedure: as §1
(§3) B16 mouse pigment cells are cultivated and placed in contact with the product according to the invention for 2 days. For this type of cells, tyrosinase is also assayed. Tyrosinase is the first enzyme in the chain of melanogenesis, changing tyrosine to DOPA-quinone.

Tyrosinase = Tyrosinase activity by B16 mouse pigment cells; assay type: cell-based; settings: 2 days contact; for Tyrosinase: n = 4
Procedure: as §3

NHM [5] = test: Number of cells (BCA protein assay) in the NHM melanin test; assay type: cell-based, human; settings: tested concentrations 5.5 and 11 ppm
Procedure: as §1

fibroblasts = test: PGE2 in fibroblasts with or without UVB (ELISA); assay type: cell-based; settings: for PGE2 with UVB irradiation / PGE2 without irradiation: n = 3
Procedure: (§4) Keratinocytes are seeded and cultured and, once at sub-confluence, receive the tyrosine derivative according to the invention, or its solvent, at different concentrations. After 24 hours, the cells are rinsed and then exposed to UVB, and the cells are then re-treated with the media containing the tyrosine derivative according to the invention at different concentrations for 24 hours. Other cases are not exposed. The culture media are assayed for PGE2, IL6 and IL8 using ELISA methods. The number of cells was estimated using the Hoescht method.
The same protocol is applied in parallel to Fibroblasts.

keratinocytes [6] = test: IL8 in keratinocytes with UVB (ELISA); assay type: cell-based; settings: for IL8 with UVB irradiation: n = 2
Procedure: as §4

HaCaT keratinoctes [7] = test: Laminin production by keratinocytes (ELISA); assay type: cell-based; settings: 3 days; for Laminin: n = 4
Procedure: as §2

[8] = test system: Normal human keratinocytes (NHK); test: NHK phagocytosis of fluorescent microbeads mimicking melanosomes; assay type: cell-based; settings: for Phagocytosis (μbeas: (Total Area/1000)): 24 h treatment then beads 3 h, n = 4
Procedure: Normal human keratinocytes (NHK) are seeded and cultured and, once at 50% sub-confluence, receive the tyrosine derivative according to the invention, or its solvent, at different concentrations for 24 h. At the end of this period, the cells receive the fluorescent microbeads mimicking melanosomes for 3 h. Then, the cells are rinsed to remove excess beads, and the mats are visualized under a fluorescence microscope to quantify phagocytosis. The cell concentration is estimated using the Hoescht method.

B16 mouse pigment cells [9] = test: Number of cells in the B16 melanin test; assay type: cell-based; settings: tested concentrations 5.5 and 11 ppm
Procedure: as §1, §3

keratinocytes [10] = test: PGE2 in keratinocytes with or without UVB (ELISA); assay type: cell-based; settings: for PGE2 with UVB irradiation / PGE2 without irradiation: n = 3
Procedure: as §4

keratinocytes [11] = test: IL6 in keratinocytes with UVB (ELISA); assay type: cell-based; settings: for IL6 with UVB irradiation: n = 2
Procedure: as §4

[12] = 12.5 μM (5.5 ppm of N-Palmitoyl-O-methyl-L-Tyrosine, 5.25 ppm of N-Palmitoyl-L-Tyrosine)
[13] = 25 μM (11 ppm of N-Palmitoyl-O-methyl-L-Tyrosine, 10.5 ppm of N-Palmitoyl-L-Tyrosine)

## CCCCCCCC/C=C\CCCCCCCCN[C@@H](Cc1ccc(O)cc1)C(=O)O [oleyl tyrosine, reference compound]
[1]; NHM
  increase in pigmentation of NHM vs. control: 9%
[1]; NHM, approximately 3 times more oleyl tyrosine applied than 16 ppm
  increase in NHM pigmentation vs. control: +35%

## CCCCCCCCCCCCCCCC(=O)N[C@@H](Cc1ccc(O)cc1)C(=O)O [N-Palmitoyl-L-Tyrosine, reference compound]
[1]; [12]
  melanin production by NHM, Variation (%) vs control: +7%; dns
[1]; [13]
  melanin production by NHM, Variation (%) vs control: +10%; dns
NHM [2]; 12.5 μM
  Variation of pigmentation of cells versus control (expert grade): 0
NHM [2]; 25 μM
  Variation of pigmentation of cells versus control (expert grade): 0

## CCCCCCCCCCCCCCCC(=O)N[C@@H](Cc1ccc(OC)cc1)C(=O)O [N-Palmitoyl-O-methyl-L-Tyrosine]
HaCaT keratinoctes [3]; 1.375 ppm
  Hyaluronic acid Variation (%) vs control: +35%; p < 0.01
  Hyaluronic acid: 402 +/− 35 ng/10^6 cell.
HaCaT keratinoctes [3]; 2.75 ppm
  Hyaluronic acid Variation (%) vs control: +31%; p < 0.01
  Hyaluronic acid: 391 +/− 25 ng/10^6 cell.
B16 mouse pigment cells [4]; 5.5 ppm
  Melanin Variation (%) vs control: +26%; p < 0.01
  Melanin: 171.1 +/− 2.3 μg/mL/10^6 cell.
B16 mouse pigment cells [4]; 11 ppm
  Melanin Variation (%) vs control: +62%; p < 0.01
  Melanin: 220.7 +/− 8.7 μg/mL/10^6 cell.
Tyrosinase; 5.5 ppm
  Tyrosinase Variation (%) vs control: +9.7%; p < 0.01
  Tyrosinase: 2.8 +/− 0 U/1000 μg protein
Tyrosinase; 11 ppm
  Tyrosinase Variation (%) vs control: +20.5%; p < 0.01
  Tyrosinase: 3.1 +/− 0 U/1000 μg protein
NHM [5]
  number of cells / toxicity: neither toxic nor multiplication activator
fibroblasts; 5.5 ppm
  PGE2 without irradiation Variation (%) vs control: −32%; p < 0.01
  PGE2 with UVB irradiation: 7332 +/− 478 ng/10^6 cell.
  PGE2 without irradiation: 7420 +/− 422 ng/10^6 cell.
fibroblasts; 5.5 ppm, non significant data
  PGE2 with UVB irradiation Variation (%) vs control: −19%; nsd*
fibroblasts; 11 ppm
  PGE2 with UVB irradiation Variation (%) vs control: −33%; p < 0.01
  PGE2 without irradiation Variation (%) vs control: −41%; p < 0.01
  PGE2 with UVB irradiation: 6117 +/− 735 ng/10^6 cell.
  PGE2 without irradiation: 6470 +/− 311 ng/10^6 cell.
Keratinocytes [6]; 5.5 ppm
  IL8 with UVB irradiation Variation (%) vs control: −42%; p < 0.01
  IL8 with UVB irradiation: 4.3 +/− 0.7 ng/10^6 cell.
Keratinocytes [6]; 11 ppm
  IL8 with UVB irradiation Variation (%) vs control: −90%; p < 0.01
  IL8 with UVB irradiation: 0.7 +/− 0 ng/10^6 cell.
HaCaT keratinoctes [7]; 2.75 ppm
  Laminin Variation (%) vs control: +33%; p < 0.01
  Laminin: 88 +/− 3 ng/10^6 cell.
HaCaT keratinoctes [7]; 5.5 ppm
  Laminin Variation (%) vs control: +69%; p < 0.01
  Laminin: 111 +/− 9 ng/10^6 cell.
[1]; [12]
  melanin production by NHM, Variation (%) vs control: +50%; p < 0.01
[1]; [13]
  melanin production by NHM, Variation (%) vs control: +86%; p < 0.01
[1]; NHM
  increase in pigmentation of NHM vs. control: 52%
[1]; NHM, 5.5 ppm
  Melanin Variation (%) vs control: +50%; p < 0.01
  Melanin: 404 +/− 42 μg/mL/10^6 cell.
[1]; NHM, 11 ppm
  Melanin Variation (%) vs control: +86%; p < 0.01
  Melanin: 501 +/− 41 μg/mL/10^6 cell.
[8]; 5.5 ppm
  Phagocytosis Variation (%) vs control: +71%; p < 0.01
  Phagocytosis (μbeas: (Total Area/1000)): 6599 +/− 1115 Total Area/1000
[8]; 11 ppm
  Phagocytosis Variation (%) vs control: +129%; p < 0.01
  Phagocytosis (μbeas: (Total Area/1000)): 9910 +/− 1161 Total Area/1000
B16 mouse pigment cells [9]
  number of cells / toxicity: neither toxic nor multiplication activator
Keratinocytes [10]; 5.5 ppm
  PGE2 with UVB irradiation Variation (%) vs control: −62%; p < 0.01
  PGE2 without irradiation Variation (%) vs control: −60%; p < 0.01
  PGE2 with UVB irradiation: 101 +/− 7 ng/10^6 cell.
  PGE2 without irradiation: 51 +/− 5 ng/10^6 cell.
Keratinocytes [10]; 11 ppm
  PGE2 with UVB irradiation Variation (%) vs control: −73%; p < 0.01
  PGE2 without irradiation Variation (%) vs control: −58%; p < 0.01
  PGE2 with UVB irradiation: 72 +/− 3 ng/10^6 cell.
  PGE2 without irradiation: 54 +/− 5 ng/10^6 cell.
Keratinocytes [11]; 5.5 ppm
  IL6 with UVB irradiation Variation (%) vs control: −43%; p < 0.01
  IL6 with UVB irradiation: 880 +/− 142 ng/10^6 cell.
Keratinocytes [11]; 11 ppm
  IL6 with UVB irradiation Variation (%) vs control: −45%; p < 0.01
  IL6 with UVB irradiation: 853 +/− 115 ng/10^6 cell.
